Measured values from US20090099192A1, “Substituted 1H-pyrrole-2,5-diones” (Bayer CropScience AG, priority 2004, published 2009).

Assay: logP determination by HPLC on reversed-phase column (C 18), EEC Directive 79/831 Annex V.A8
Type: physicochemical
Settings: reversed-phase C 18, 43° C., acid range (0.1% aqueous phosphoric acid, acetonitrile), marked a)
Description: a) The logP values given in table 1 were determined in accordance with EEC Directive 79/831 Annex V.A8 by HPLC (High Performance Liquid Chromatography) on a reversed-phase column (C 18). Temperature: 43° C. (a) Mobile phases for the determination in the acid range: 0.1% aqueous phosphoric acid, acetonitrile; linear gradient from 10% acetonitrile to 90% acetonitrile—corresponding measurement results are marked a) in table 1. Calibration was carried out using unbranched alkan-2-ones (having 3 to 16 carbon atoms) with known logP values (determination of the logP values by the retention times using linear interpolation between two successive alkanones).

**Q.** With `N#Cc1ccc(C2=C(O)C(=O)N(CC(F)(F)F)C2=O)cc1` [Example 40] as the compound, how does the logP read?
**A.** logP = 1.94^a)

**Q.** Which logP does the source give for `N#Cc1ccc(C2=C(O)C(=O)N(c3ccc(C(F)(F)F)cc3)C2=O)cc1` [Example 69] here?
**A.** logP = 2.80^a)

**Q.** With `O=C1C(O)=C(c2cccc(C(F)(F)F)c2)C(=O)N1CC(F)(F)F` [Example 38] as the compound, how does the logP read?
**A.** logP = 2.70^a)

**Q.** Which logP does the source give for `O=C1C(O)=C(c2ccccc2Cl)C(=O)N1c1ccc(OC(F)(F)F)cc1` [Example 52] here?
**A.** logP = 3.27^a)

**Q.** Which logP does the source give for `O=C1C(O)=C(c2ccccc2F)C(=O)N1Cc1ccc(OC(F)(F)F)cc1` [Example 83] here?
**A.** logP = 3.45^a)

**Q.** Which logP does the source give for `O=C1C(O)=C(c2cccc(OC(F)(F)F)c2)C(=O)N1CC(F)(F)F` [Example 42] here?
**A.** logP = 2.82^a)

**Q.** With `Cc1ccc(-c2ccc(Cl)cc2)cc1C1=C(O)C(=O)N(CC(C)(C)C)C1=O` [Example 138] as the compound, how does the logP read?
**A.** logP = 4.61^a)

**Q.** Which logP does the source give for `O=C1C(O)=C(c2c(F)cccc2F)C(=O)N1c1ccc(C(F)(F)F)cc1` [Example 66] here?
**A.** logP = 3.48^a)

**Q.** For `O=C1C(O)=C(c2cc(Cl)cc(Cl)c2)C(=O)N1CC(F)(F)F` [Example 43], which logP is on record?
**A.** logP = 2.67^a)

**Q.** With `CCOc1cccc(F)c1CN1C(=O)C(O)=C(c2c(C)cc(C)cc2C)C1=O` [Example 181] as the compound, how does the logP read?
**A.** logP = 3.68^a)

**Q.** For `CCOC(=O)CCN1C(=O)C(O)=C(c2ccccc2Cl)C1=O` [Example 177], which logP is on record?
**A.** logP = 2.21^a)

**Q.** Which logP does the source give for `O=C1C(O)=C(c2ccccc2Cl)C(=O)N1c1ccc(C(F)(F)F)cc1` [Example 27] here?
**A.** logP = 3.10^a)

**Q.** For `O=C1C(O)=C(c2cccc(C(F)(F)F)c2)C(=O)N1Cc1cc(Cl)cc(Cl)c1` [Example 112], which logP is on record?
**A.** logP = 4.27^a)

**Q.** For `Cc1ccc(-c2ccc(Cl)cc2)cc1C1=C(O)C(=O)N(Cc2cccc(C(F)(F)F)c2)C1=O` [Example 128], which logP is on record?
**A.** logP = 4.65^a)

**Q.** For `O=C1C(O)=C(c2cc(Cl)cc(Cl)c2)C(=O)N1CCC(F)(F)F` [Example 49], which logP is on record?
**A.** logP = 2.94^a)

**Q.** With `O=C1C(O)=C(c2ccccc2Cl)C(=O)N1c1cccc(C(F)(F)F)c1` [Example 26] as the compound, how does the logP read?
**A.** logP = 3.04^a)

**Q.** With `O=C1C(O)=C(c2ccc(C(F)(F)F)cc2)C(=O)N1Cc1ccc(OC(F)(F)F)cc1` [Example 89] as the compound, how does the logP read?
**A.** logP = 4.03^a)

**Q.** Which logP does the source give for `O=C1C(O)=C(c2ccc(OC(F)(F)F)cc2)C(=O)N1c1ccc(Cl)cc1` [Example 62] here?
**A.** logP = 3.80^a)

**Q.** With `O=C1C(O)=C(c2ccccc2Cl)C(=O)N1Cc1cc(Cl)cc(Cl)c1` [Example 111] as the compound, how does the logP read?
**A.** logP = 3.67^a)

**Q.** Which logP does the source give for `Cc1cc(C)c(C2=C(O)C(=O)N(Cc3c(F)cccc3F)C2=O)c(C)c1` [Example 104] here?
**A.** logP = 3.48^a)

**Q.** With `O=C1C(O)=C(c2c(F)cccc2F)C(=O)N1CCC(F)(F)F` [Example 44] as the compound, how does the logP read?
**A.** logP = 2.14^a)

**Q.** For `CCOC(=O)C1CCCCC1N1C(=O)C(O)=C(c2c(C)cc(-c3ccc(Cl)cc3)cc2C)C1=O` (stereo not shown) [Example 174], which logP is on record?
**A.** logP = 4.87^a)

**Q.** With `O=C1C(O)=C(c2cccc(OC(F)(F)F)c2)C(=O)N1CCC(F)(F)F` [Example 48] as the compound, how does the logP read?
**A.** logP = 3.30^a)

**Q.** For `O=C1C(O)=C(c2cccc(OC(F)(F)F)c2)C(=O)N1c1cc(Cl)cc(Cl)c1` [Example 80], which logP is on record?
**A.** logP = 3.94^a)

**Q.** With `O=C1C(O)=C(c2ccccc2Cl)C(=O)N1c1ncc(C(F)(F)F)s1` [Example 164] as the compound, how does the logP read?
**A.** logP = 3.14^a)

**Q.** For `Cc1ccc(C2=C(O)C(=O)N(Cc3ccc(OC(F)(F)F)cc3)C2=O)cc1` [Example 92], which logP is on record?
**A.** logP = 4.27^a)

**Q.** With `O=C1C(O)=C(c2cccc(OC(F)(F)F)c2)C(=O)N1Cc1ccccc1F` [Example 101] as the compound, how does the logP read?
**A.** logP = 3.64^a)

**Q.** With `O=C1C(O)=C(c2cc(Cl)cc(Cl)c2)C(=O)N1c1ccc(C(F)(F)F)cc1` [Example 72] as the compound, how does the logP read?
**A.** logP = 3.42^a)

**Q.** With `O=C1C(O)=C(c2ccc(OC(F)(F)F)cc2)C(=O)N1Cc1cc(Cl)cc(Cl)c1` [Example 113] as the compound, how does the logP read?
**A.** logP = 4.67^a)

**Q.** With `Cc1cc(C)c(C2=C(O)C(=O)N(Cc3ccccc3F)C2=O)c(C)c1` [Example 93] as the compound, how does the logP read?
**A.** logP = 3.51^a)

**Q.** For `O=C1C(O)=C(c2cccc(OC(F)(F)F)c2)C(=O)N1Cc1cc(Cl)cc(Cl)c1` [Example 117], which logP is on record?
**A.** logP = 4.45^a)
